Series [1] relates to phenylquinone induced mouse writhing. Nature of the series: phenylquinone induced mouse writhing test (analgesic activity). Format: in vivo. The settings on record: po. Here is the method:
Analgesic activity was determined using a conventional phenylquinone induced mouse writhing test.
(In writhing tests, fewer writhes than in controls are read as antinociception.)

The next series deals with test animals. Conditions: in vivo.
The conditions of series [2]: reported in J. Pharmacol, Exptl. Therap. 1973, 185, 127-138; cited from earlier work.

The term ED50 denotes the midpoint of the dose-response relation. The low end stands for greater potency, the high end for weaker potency. Take `CC(=O)CCc1cc(C)c(C(=O)c2ccc(Cl)cc2)n1C` [Example 1, 4-(1,4-dimethyl-p-chlorobenzoyl-2-pyrryl)butan-2-one]: the ED50 in series [1] was determined as 6.1 mg/kg. Turning to `Cc1ccc(C(=O)c2ccc(CC(=O)O)n2C)cc1` [Tolmetin], the gastric irritancy result in the series with test animals is listed as “causes gastric irritancy”. Moreover, the anti-inflammatory activity entry in series [2] was “possess anti-inflammatory activity”.

The values are drawn from patent EP0032314A1, “Aroylpyrrole derivatives, processes for their preparation and their use” (BEECHAM GROUP PLC, priority 1980, dated 1981).
